Data published in patent publication US10206889B2, “Emesis treatment” (Repurposed Therapeutics, Inc., priority 2009, dated 2019).

Experiments:
[1] = test system: xylazine-induced emesis in cats; test: Xylazine-induced emesis in cats, with vomit scale and defensive behavior (anxiety) scoring; type: in vivo, cats (female domestic short-haired felines); conditions: for level of anxiety 15 minutes after treatment / protection against xylazine-induced emesis / cats vomited: FIG. 1, female cats; for protection against xylazine-induced emesis / cats vomited: fifteen minutes before 0.66 mg/kg xylazine SC, observed 30 minutes; for Defensive Behavior Scale / Mean Defensive Score / % Protection (vomiting) / Mean Latency (mean latency to retch/vomit): cats; for % Protection (vomiting) / Mean Latency (mean latency to retch/vomit): 20 minutes before xylazine 0.66 mg/kg; for anxiety-inducing effect in test subjects / effectiveness in preventing (chemically-induced) emesis: summary statement of the description, no dose given, test subjects
Experimental: (i) 0.9% sodium chloride vehicle (n=6);
[…], 0.66 mg/kg xylazine was administered subcutaneously, and the test subjects where then observed for 30 minutes.
Cats not susceptible to motion sickness were assigned to the xylazine testing group. Xylazine stimulates receptors on a pathway different from that used by motion sickness and thus served as a test of the generality of anti-emetic effects observed with motion testing.
Prior to the evaluation of anti-emetic compounds, the production of an emetic response by xylazine in felines was confirmed in the laboratory. Cats were injected subcutaneously with either a freshly prepared solution of 0.66 mg/kg of xylazine in 0.9% sodium chloride or 0.9% sodium chloride vehicle, both adjusted to an injection volume of 0.1 ml/kg.
One week following the confirmation of an emetic response by the cats, subject cats were given either vehicle or test compound/composition in 0.9% sodium chloride or vehicle (injection volume of 0.1 ml/kg) subcutaneously, 20 minutes before administration of xylazine. […] Animals were scored using the vomit scale developed by Sufi et al., 1979. Additional experiments were separated by at least a 1 week washout period.
A. Vomit Scale Scoring: • 1. Sal I (licking—parasympathetic): 1 pt • 2. Sal II (drool, thin/frothy—early sympathetic): 2 pts • 3. Sal III (stringy saliva, dangles—sympathetic): 4 pts • 4. Defection: 8 pts • 5. Urination: 8 pts • 6. Wretch/vomiting: 16 pts
B. Defensive Behavior Scale: • 1. No defensiveness: normal behavior; • 2. Slight defensiveness: retreating to the rear of the cage when approached and/or growling when being carried; • 3. […] Strong defensiveness: vigorous clawing and biting to prevent being handled. V. Statistical Methods
Dose response curves were analyzed by Cochran's Q-test to establish significant effects. Paired comparisons were made using McNemar's test. Tests for line parallelism, relative potency and ED50 were based on least squares regression in a program for pharmacological statistics. The data from the nonparametric rating scale was analyzed using Friedman's analysis of variance model (ANOVA).

[2] = target: T1, 5-HT1A receptor (Human Ligand) (Homo sapiens, UniProt P08908); test: 5-HT1A cellular function, antagonist; type: cell-based
T1 sequence (P08908 1-422): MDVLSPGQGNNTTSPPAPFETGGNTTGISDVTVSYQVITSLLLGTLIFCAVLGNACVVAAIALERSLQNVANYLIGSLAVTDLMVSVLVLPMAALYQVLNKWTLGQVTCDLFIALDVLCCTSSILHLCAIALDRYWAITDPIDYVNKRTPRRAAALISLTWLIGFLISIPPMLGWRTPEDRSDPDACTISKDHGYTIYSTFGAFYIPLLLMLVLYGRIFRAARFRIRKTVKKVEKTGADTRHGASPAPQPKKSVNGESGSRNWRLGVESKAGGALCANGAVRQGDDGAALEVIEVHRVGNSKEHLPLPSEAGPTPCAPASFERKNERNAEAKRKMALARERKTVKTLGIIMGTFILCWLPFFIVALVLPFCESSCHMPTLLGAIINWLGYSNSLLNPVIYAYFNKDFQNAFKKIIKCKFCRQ

[3] = target: T1, 5-HT1A receptor (Human Ligand); test: 5-HT1A cellular function, agonist; type: cell-based
Experimental: The percent of control agonist response was recorded for several log concentrations of compounds/compositions.

[4] = target: T2, rat ligand of the 5-HT1A receptor (Rattus norvegicus, UniProt P19327); conditions: Cornfield 1991, Hadrava 1996, Dabrowska 2006; cited from earlier work
T2 sequence (P19327 1-422): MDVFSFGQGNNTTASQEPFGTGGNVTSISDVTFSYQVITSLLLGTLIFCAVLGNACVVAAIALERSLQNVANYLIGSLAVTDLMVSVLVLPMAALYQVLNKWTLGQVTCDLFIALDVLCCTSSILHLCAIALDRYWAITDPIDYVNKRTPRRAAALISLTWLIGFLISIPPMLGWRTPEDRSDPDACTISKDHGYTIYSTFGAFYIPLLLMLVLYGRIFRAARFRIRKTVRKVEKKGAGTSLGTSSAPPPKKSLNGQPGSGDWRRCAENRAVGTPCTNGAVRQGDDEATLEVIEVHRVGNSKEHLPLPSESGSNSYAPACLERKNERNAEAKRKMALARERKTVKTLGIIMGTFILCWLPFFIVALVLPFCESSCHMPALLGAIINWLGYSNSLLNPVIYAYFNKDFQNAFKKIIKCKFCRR

Structure (SMILES) | Defensive Behavior Scale ([1]; dose 0.16 mg/kg SC) | Mean Defensive Score ([1]; dose 0.16 mg/kg SC) | % Protection (vomiting) ([1]; dose 0.16 mg/kg SC) [%] | Mean Latency (mean latency to retch/vomit) ([1]; dose 0.16 mg/kg SC) [min] | Cellular Function Antagonist (IC50, nM) [2] | level of anxiety 15 minutes after treatment ([1]; 0.08 mg/kg SC) | cats vomited ([1]; 0.08 mg/kg SC) | Defensive Behavior Scale ([1]; dose 0.08 mg/kg SC) | Mean Defensive Score ([1]; dose 0.08 mg/kg SC) | % Protection (vomiting) ([1]; dose 0.08 mg/kg SC) [%] | Mean Latency (mean latency to retch/vomit) ([1]; dose 0.08 mg/kg SC) [min] | anxiety-inducing effect in test subjects [1] | effectiveness in preventing (chemically-induced) emesis [1] | type of agonism at the 5-HT1A receptor (previous findings) [4] | also measured
CCCN(CCC)C1CCc2cccc(O)c2C1 (racemic) [R/S-(+/−)-DPAT, (±)-8-Hydroxy-2-(dipropylamino)tetralin] | Moderate | 2.0 | 100.00 | 0.0 | Inactive |  |  |  |  |  |  |  |  |  | level of anxiety 15 minutes after treatment ([1]; 0.16 mg/kg SC): moderate level of anxiety; protection against xylazine-induced emesis ([1]; 0.16 mg/kg SC): 100%
CCCN(CCC)[C@@H]1CCc2cccc(O)c2C1 [R-(+)-DPAT, R(+)-8-hydroxy-2-(dipropylamino)tetralin] |  |  |  |  | Inactive | extreme level of anxiety | none of the cats vomited | Strong | 3.0 | 100.00 | 0.00 | moderate to strong | 100% | full agonist | Defensive Behavior Scale ([1]; dose 0.02 mg/kg SC): Moderate; Mean Defensive Score ([1]; dose 0.02 mg/kg SC): 2.0; % Protection (vomiting) ([1]; dose 0.02 mg/kg SC): 100.00%; Mean Latency (mean latency to retch/vomit) ([1]; dose 0.02 mg/kg SC): 0.00 min; Defensive Behavior Scale ([1]; dose 0.04 mg/kg SC): Strong; Mean Defensive Score ([1]; dose 0.04 mg/kg SC): 3.0; % Protection (vomiting) ([1]; dose 0.04 mg/kg SC): 100.00%; Mean Latency (mean latency to retch/vomit) ([1]; dose 0.04 mg/kg SC): 0.00 min; Cellular Function Agonist: type of agonism ([3]; listed as R(+)-8-OH-DPAT): Full Agonist
CCCN(CCC)[C@H]1CCc2cccc(O)c2C1 [S-(−)-DPAT, S(−)-8-hydroxy-2-(dipropylamino)tetralin] | None | 0.0 | 85.71 | 0.82 | Inactive | did not show any anxiety | 40% | None | 0.0 | 75.00 | 1.58 | no anxiety or only slight anxiety | not fully effective | partial agonist | protection against xylazine-induced emesis ([1]; 0.08 mg/kg SC): 60%; Defensive Behavior Scale ([1]; dose 0.32 mg/kg SC): Slight; Mean Defensive Score ([1]; dose 0.32 mg/kg SC): 1.0; % Protection (vomiting) ([1]; dose 0.32 mg/kg SC): 80.00%; Mean Latency (mean latency to retch/vomit) ([1]; dose 0.32 mg/kg SC): 1.00 min; Cellular Function Agonist: type of agonism ([3]; listed as S(−)-8-OH-DPAT): Full Agonist
